Reference: patent US9540380B2, “Imidazotriazinone compounds” (Ironwood Pharmaceuticals, Inc., priority 2010, dated 2017)
pIC50: −log10 of the molar value.

Legend:
[1] = target: T1, PDE1A (Homo sapiens, UniProt P54750); experiment: Phosphodiesterase Enzyme Screening Assay, PDE1A (selectivity versus PDE9A2); assay type: biochemical; conditions: ratio of IC50 values; value greater than 1 indicates greater selectivity for PDE9A2
T1 construct: purchased Reaction Biology Corporation, Malvern, Pa
Excerpt: (§1) Compounds of the invention were screened against PDE1A, PDE1B, PDE2A, PDE3A, PDE3B, PDE4A1A, PDE4B1, PDE4D3, PDE5A1, PDE6C, PDE7A, PDE8A1, PDE9A2, PDE10A2 AND PDE11A isoforms of the phosphodiesterase enzyme to determine activity and overall selectivity through comparative analysis. The assay generally consists of testing the compounds of the invention at 10 concentrations. Where 8-methoxy-IBMX and Zaprinast were used as reference inhibitors.
(§2) The phosphodiesterase enzyme isoforms were obtained from a commercial retailer (Reaction Biology Corporation, Malvern, Pa.) for use in the instant screening assay.
(§3) The analysis was completed using the Caliper LabChip 3000 and a 12-sipper LabChip. LabChip assays are separations-based, meaning that the product and substrate are electrophoretically separated, thereby minimizing interferences and yielding the highest data quality available on any screening platform. Z′ factors for both the EZ Reader and LC3000 enzymatic assays are routinely in the 0.8 to 0.9 range. High Z′ values, few false positives, few false negatives and analytical quality reproducibility are the reasons cited for the increasing reliance on the LabChip assays.
(§4) The off-chip incubation mobility-shift phosphodiesterase assay uses a microfluidic chip to measure the conversion of a fluorescent cyclic AMP substrate to a 5′-AMP product, or a cyclic GMP substrate to a 5′-GMP product. The reaction mixture, from a microtiter plate well, is introduced through a capillary sipper onto the chip, where the fluorescent substrate and product are separated by electrophoresis and detected via laser-induced fluorescence. […] The precision of microfluidics allows researchers to detect subtle interactions between drug candidates and therapeutic targets. The technology is able to detect both strong and weak inhibitors with high accuracy, and routinely identifies drug candidates that conventional techniques miss.
(§5) Reactions were carried out in 100 mM HEPES (pH 7.5), 5 mM MgCl2, 1 mM DTT, 0.003% Brij, 4.0 μM cGMP substrate. The reaction was started by addition of cGMP or cAMP and incubated for 1 hour at R.T. The reaction was terminated by the addition of stop buffer containing 100 mM HEPES (pH 7.5), 15 mM EDTA, 0.015% Brij-35, 5% DMSO. Cyclic AMP/GMP substrate and 5′-AMP/5′-GMP product were separated by charge using electrophoretic mobility shift. Product formed was compared to control wells to determine inhibition or enhancement of enzyme activity.
(§6) One or more reference compounds, depending on phosphodiesterase isoform, selected from 8-methoxy-IBMX, Zaprinast, Trequinsin, Pentoxifyline, Rolipram, and Vinpocetine, Dipyridamole, and BRL-50481 were run alongside client samples to ensure data quality. The resulting IC50 is compared against the historical average and must be within 3-fold of this average.
(§7) Data points were averages of quadruplicate wells and error bars represented the SEM for each point. IC50s were determined using GraphPad Prism Version 5.01 and the log (inhibitor) vs. response variable slope curve fit.

[2] = target: T2, PDE1B (Homo sapiens, UniProt Q01064); experiment: Phosphodiesterase Enzyme Screening Assay, PDE1B (selectivity versus PDE9A2); assay type: biochemical; conditions: ratio of IC50 values; value greater than 1 indicates greater selectivity for PDE9A2
T2 construct: purchased Reaction Biology Corporation, Malvern, Pa
T2 sequence (Q01064 whole entry): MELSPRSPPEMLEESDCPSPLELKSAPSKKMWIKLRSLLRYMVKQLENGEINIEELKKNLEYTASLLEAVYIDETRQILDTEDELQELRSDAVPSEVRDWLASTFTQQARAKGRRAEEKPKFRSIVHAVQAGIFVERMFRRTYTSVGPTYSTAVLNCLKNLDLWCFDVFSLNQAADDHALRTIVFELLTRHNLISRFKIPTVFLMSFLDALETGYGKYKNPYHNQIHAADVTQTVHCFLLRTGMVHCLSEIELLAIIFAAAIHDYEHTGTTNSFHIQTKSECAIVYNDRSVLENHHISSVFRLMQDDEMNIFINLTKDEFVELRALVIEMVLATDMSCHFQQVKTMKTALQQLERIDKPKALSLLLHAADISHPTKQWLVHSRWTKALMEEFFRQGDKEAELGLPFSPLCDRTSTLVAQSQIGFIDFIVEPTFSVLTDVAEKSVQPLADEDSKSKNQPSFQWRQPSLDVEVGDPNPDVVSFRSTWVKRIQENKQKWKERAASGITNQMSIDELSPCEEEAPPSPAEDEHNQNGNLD
Excerpt: as §1, §2, §3, §4, §5, §6, §7

[3] = target: T3, PDE9A2 (Homo sapiens, UniProt O76083); experiment: Phosphodiesterase Enzyme Screening Assay, PDE9A2 (Caliper LabChip mobility-shift); assay type: biochemical; conditions: 10 concentrations, 4.0 μM cGMP substrate, 1 hour at R.T.; read-out: Band (PDE9A2 IC50)
T3 construct: purchased Reaction Biology Corporation, Malvern, Pa
T3 sequence (O76083 1-533 isoform O76083-2): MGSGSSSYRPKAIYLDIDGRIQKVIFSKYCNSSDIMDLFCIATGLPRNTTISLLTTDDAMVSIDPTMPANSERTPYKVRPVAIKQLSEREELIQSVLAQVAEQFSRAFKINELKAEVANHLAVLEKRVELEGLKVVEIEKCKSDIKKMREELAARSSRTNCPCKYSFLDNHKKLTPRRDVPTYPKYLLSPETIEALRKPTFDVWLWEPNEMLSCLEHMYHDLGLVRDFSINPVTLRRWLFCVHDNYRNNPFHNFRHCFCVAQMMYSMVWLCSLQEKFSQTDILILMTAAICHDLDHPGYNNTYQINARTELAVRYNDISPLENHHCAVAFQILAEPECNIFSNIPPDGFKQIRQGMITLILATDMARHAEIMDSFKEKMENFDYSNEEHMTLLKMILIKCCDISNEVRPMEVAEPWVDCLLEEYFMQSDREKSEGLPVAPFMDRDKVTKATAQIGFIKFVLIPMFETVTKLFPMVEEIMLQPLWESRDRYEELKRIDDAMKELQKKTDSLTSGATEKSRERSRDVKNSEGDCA
Excerpt: as §1, §2, §3, §4, §5, §6, §7

[4] = target: PDE9 (Homo sapiens, UniProt O76083); conditions: PDE9 affinity for cGMP; cited from earlier work
PDE9, sequence (O76083 whole entry): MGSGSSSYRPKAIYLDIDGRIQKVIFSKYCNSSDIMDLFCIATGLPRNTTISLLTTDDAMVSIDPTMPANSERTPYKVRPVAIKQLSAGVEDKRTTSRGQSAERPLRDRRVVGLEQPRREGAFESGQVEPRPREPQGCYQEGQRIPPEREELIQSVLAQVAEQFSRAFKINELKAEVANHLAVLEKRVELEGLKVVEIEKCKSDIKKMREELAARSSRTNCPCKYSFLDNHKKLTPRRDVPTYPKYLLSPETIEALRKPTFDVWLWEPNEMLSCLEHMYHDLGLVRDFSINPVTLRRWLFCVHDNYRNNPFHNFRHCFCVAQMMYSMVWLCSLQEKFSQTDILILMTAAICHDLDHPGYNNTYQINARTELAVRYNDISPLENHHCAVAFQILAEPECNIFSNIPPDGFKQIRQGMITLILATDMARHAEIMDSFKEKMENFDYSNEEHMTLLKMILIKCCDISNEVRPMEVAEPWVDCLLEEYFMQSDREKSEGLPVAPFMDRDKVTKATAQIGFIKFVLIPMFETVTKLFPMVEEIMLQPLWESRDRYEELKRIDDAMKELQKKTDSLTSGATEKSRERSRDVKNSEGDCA

T1 sequence (P54750 whole entry): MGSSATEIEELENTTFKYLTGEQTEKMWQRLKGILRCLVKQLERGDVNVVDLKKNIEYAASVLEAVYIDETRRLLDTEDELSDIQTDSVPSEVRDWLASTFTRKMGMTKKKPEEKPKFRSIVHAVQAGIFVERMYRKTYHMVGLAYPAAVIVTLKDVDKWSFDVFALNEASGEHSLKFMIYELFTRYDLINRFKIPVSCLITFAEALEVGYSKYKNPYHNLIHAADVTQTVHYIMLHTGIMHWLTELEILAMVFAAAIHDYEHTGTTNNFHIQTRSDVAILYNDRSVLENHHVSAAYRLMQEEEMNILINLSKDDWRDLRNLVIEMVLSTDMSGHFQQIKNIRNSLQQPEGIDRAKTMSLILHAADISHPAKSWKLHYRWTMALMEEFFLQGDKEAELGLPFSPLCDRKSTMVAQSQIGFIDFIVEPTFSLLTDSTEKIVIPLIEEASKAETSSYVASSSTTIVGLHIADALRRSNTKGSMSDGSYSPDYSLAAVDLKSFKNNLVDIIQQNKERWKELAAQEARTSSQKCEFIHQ

SMILES: C[C@@H]1CN(Cc2cn3ncccc3n2)C[C@H]1c1nn2c(C3CCOCC3)ncc2c(=O)[nH]1 (single isomer, unassigned) [(+)-2-((3,4-trans)-1-(imidazo[1,2-b]pyridazin-2-ylmethyl)-4-] [(+)-2-((3,4-trans)-1-(imidazo[1,2-b]pyridazin-2-ylmethyl)-4-methylpyrrolidin-3-yl)-7-(tetrahydro-2H-pyran-4-yl)imidazo[5,1-f][1,2,4]triazin-4(3H)-one]
- PDE1A selectivity (versus PDE9A2) [1]: 1005
- PDE1B selectivity (versus PDE9A2) [2]: 1413

SMILES: C[C@@H]1CN(Cc2ccc3ccccc3n2)C[C@H]1c1nn2c(C3CCOCC3)ncc2c(=O)[nH]1 (single isomer, unassigned) [(+)-2-((3,4-trans)-4-methyl-1-(quinolin-2-ylmethyl)pyrrolidi] [(+)-2-((3,4-trans)-4-methyl-1-(quinolin-2-ylmethyl)pyrrolidin-3-yl)-7-(tetrahydro-2H-pyran-4-yl)imidazo[5,1-f][1,2,4]triazin-4(3H)-one]
- PDE1A selectivity (versus PDE9A2) [1]: 621
- PDE1B selectivity (versus PDE9A2) [2]: 1400

SMILES: C[C@@H]1CN(Cc2ccccc2C#N)C[C@H]1c1nn2c(C3CCOCC3)ncc2c(=O)[nH]1 (single isomer, unassigned) [(+)-2-(((3,4-trans)-3-methyl-4-(4-oxo-7-(tetrahydro-2H-pyran-4-yl)-3,4-dihydroimidazo[5,1-f][1,2,4]triazin-2-yl)pyrrolidin-1-yl)methyl)benzonitrile]
- pIC50 [3]: > 6.00
- PDE1A selectivity (versus PDE9A2) [1]: 241
- PDE1B selectivity (versus PDE9A2) [2]: 220

SMILES: C[C@@H]1CN(Cc2cccc(C#N)c2)C[C@H]1c1nn2c(C3CCOCC3)ncc2c(=O)[nH]1 (single isomer, unassigned) [(+)-3-(((3,4-trans)-3-methyl-4-(4-oxo-7-(tetrahydro-2H-pyran-4-yl)-3,4-dihydroimidazo[5,1-f][1,2,4]triazin-2-yl)pyrrolidin-1-yl)methyl)benzonitrile]
- pIC50 [3]: > 6.00
- PDE1A selectivity (versus PDE9A2) [1]: 942
- PDE1B selectivity (versus PDE9A2) [2]: 343

SMILES: C[C@@H]1CN(Cc2ccc(C#N)cc2)C[C@H]1c1nn2c(C3CCOCC3)ncc2c(=O)[nH]1 (single isomer, unassigned) [(−)-4-(((3,4-trans)-3-methyl-4-(4-oxo-7-(tetrahydro-2H-pyran-4-yl)-3,4-dihydroimidazo[5,1-f][1,2,4]triazin-2-yl)pyrrolidin-1-yl)methyl)benzonitrile]
- pIC50 [3]: > 6.00
- PDE1A selectivity (versus PDE9A2) [1]: 640
- PDE1B selectivity (versus PDE9A2) [2]: 1445

SMILES: Nc1nc2c(ncn2[C@@H]2O[C@@H]3COP(=O)(O)O[C@H]3[C@H]2O)c(=O)[nH]1 [cGMP, cyclic guanosine monophosphate]
- Km [4]: ~0.17 µM
